# Key:
# [1] = test system: mitochondria of HeLa cells; assay: Co-localization with the mitochondrial marker Mitotracker Green (Pearson's correlation of fluorescence profiles); assay type: cell-based, human; conditions: live-cell confocal fluorescence imaging, co-staining with 100 nM Mitotracker Green, 37 °C
# Description: HeLa cells were treated with 1 and 10 µM of the corresponding peptoids for 1 and 24 h. […] However, for the better visualization of the organellar accumulation the incubation period was prolonged to 24 h. Co-localization experiments were performed by co-staining of the mitochondria with the mitochondrial marker Mitotracker Green^TM (Figure 5 and Figure 6).
# By colocalizing the peptides with the mitochondrial marker Mitotracker Green^TM Pearson’s correlation coefficients (Rr) of the corresponding fluorescence profiles could be calculated reflecting mitochondrial specificity.
# All procedures with mammalian cells were carried out under sterile conditions. […]
# The purified peptoids were dissolved in bidistilled water to yield a 2 mM stock solution and were further diluted with 10% DMEM to yield the respective incubation media. […] Cellular uptake of the peptoids was measured by live-cell imaging after 1 and 24 h as fixation would alter the intracellular distribution as described for other polycationic species.
# Visualization of the peptoids was achieved by confocal microscopy using a Leica TCS-SP5 II, equipped with a DMI6000 microscope. […] Fluorescence emission was measured at 417–468 nm for the detection of the nuclei, at 499–552 nm for the detection of the mitochondria, and 593–696 nm for the detection of the rhodamine B labeled peptoids. […]
# HeLa cells = assay: Cellular uptake and intracellular distribution of rhodamine B-labeled peptoids by live-cell confocal imaging; assay type: cell-based, human; conditions: 1 × 10^4 HeLa wt cells, 1 µM peptoid, 24 h, 37 °C, confocal fluorescence imaging, co-staining Hoechst 33342 and Mitotracker Green
# Description: All procedures with mammalian cells were carried out under sterile conditions. 1 × 10^4 HeLa (human cervix carcinoma) cells were plated into each well of a 8-well µslide from IBIDI (Ibitreat, Martinsried, Germany) and cultured in 200 µL Dulbecco’s modified Eagle’s medium, high glucose, (DMEM, Invitrogen, Karlsruhe, Germany) supplemented with 10% fetal calf serum (FCS, PAA) and1 U/mL penicillin/streptomycin at 37 °C, 5% CO2.
# The purified peptoids were dissolved in bidistilled water to yield a 2 mM stock solution and were further diluted with 10% DMEM to yield the respective incubation media. The cells were cultured as described above were incubated with the different peptoids at final concentrations of 1–10 µM. Cellular uptake of the peptoids was measured by live-cell imaging after 1 and 24 h as fixation would alter the intracellular distribution as described for other polycationic species.
# Visualization of the peptoids was achieved by confocal microscopy using a Leica TCS-SP5 II, equipped with a DMI6000 microscope. The peptoids were excited at 561 nm using a DPSS laser. […] Fluorescence emission was measured at 417–468 nm for the detection of the nuclei, at 499–552 nm for the detection of the mitochondria, and 593–696 nm for the detection of the rhodamine B labeled peptoids. […]
substance,measurement,setting,value
RhoB-Npmb-Nlys3-NH2 [compound 11],"Pearson's correlation coefficient (Rr) of the fluorescence profiles of peptoid and Mitotracker Green, reflecting mitochondrial specificity",[1],+0.68
same,Intracellular localization,HeLa cells,mitochondrial localization

# — publication PMC3816671, “Cell Penetrating Peptoids (CPPos): Synthesis of a Small Combinatorial Library by Using IRORI MiniKans” (Pharmaceuticals, 2012)
